Assay results published in patent US8487102B2, “Pyrrazolopyridine compounds as dual NK1/NK3 receptor antagonists” (Hoffmann-La Roche Inc., priority 2010, dated 2013).

Experiments:
[1] = molecular target: T1, human NK1 receptor (Homo sapiens, UniProt P25103); test: NK1 receptor binding assay, [3H]substance P displacement; conditions: human NK1 receptors in CHO cells, [3H]substance P 0.6 nM
T1 construct: expressed in transfected cells; host or cells: CHO cells (Semliki virus expression system), membrane suspension

[2] = molecular target: T2, Recombinant human NK3 (hNK3) receptor (Homo sapiens, UniProt P29371); test: NK3 receptor binding assay, [3H]SR142801 displacement; conditions: hNK3 receptor membranes, [3H]SR142801 0.3 nM
T2 construct: expressed in transfected cells; membrane preparations of the recombinant receptor
T2 sequence (P29371 1-465): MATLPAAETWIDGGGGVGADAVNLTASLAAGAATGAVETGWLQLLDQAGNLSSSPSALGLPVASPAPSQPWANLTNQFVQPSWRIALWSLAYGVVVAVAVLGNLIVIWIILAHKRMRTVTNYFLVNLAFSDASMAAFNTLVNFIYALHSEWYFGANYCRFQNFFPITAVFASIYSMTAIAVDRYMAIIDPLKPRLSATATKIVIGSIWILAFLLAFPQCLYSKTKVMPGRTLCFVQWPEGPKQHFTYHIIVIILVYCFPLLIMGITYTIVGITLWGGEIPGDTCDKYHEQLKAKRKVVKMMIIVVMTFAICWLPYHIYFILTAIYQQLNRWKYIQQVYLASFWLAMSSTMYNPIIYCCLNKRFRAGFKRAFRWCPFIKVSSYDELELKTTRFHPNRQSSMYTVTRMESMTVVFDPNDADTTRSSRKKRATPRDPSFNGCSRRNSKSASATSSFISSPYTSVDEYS
Description: Recombinant human NK3 (hNK3) receptor affinity was determined in a 96 well plate assay, using [^3H]SR142801 (final concentration 0.3 nM) to radiolabel the hNK3 receptor in the presence of 10 concentrations of competing compound or buffer. Non specific binding was determined using 10 μM SB222200. Assay buffer consisted of Tris-HCl (50 mM, pH 7.4), BSA (0.1%), MnCl2 (4 mM) and phosphoramidon (1 μM). Membrane preparations of hNK3 receptors (approximately 2.5 μg/well in a 96 well plate) were used to initiate the incubation for 90 min at room temperature. This assay was terminated by rapid filtration under vacuum through GF/C filters, presoaked for 90 min with PEI (0.3%), with 3×0.5 ml washes of ice-cold Tris buffer (50 mM, pH 7.4) containing 0.1% BSA. The radioactivity retained on the filters was measured by scintillation counting. All assays were performed in duplicate in at least two separate experiments.

T1 sequence (P25103 whole entry): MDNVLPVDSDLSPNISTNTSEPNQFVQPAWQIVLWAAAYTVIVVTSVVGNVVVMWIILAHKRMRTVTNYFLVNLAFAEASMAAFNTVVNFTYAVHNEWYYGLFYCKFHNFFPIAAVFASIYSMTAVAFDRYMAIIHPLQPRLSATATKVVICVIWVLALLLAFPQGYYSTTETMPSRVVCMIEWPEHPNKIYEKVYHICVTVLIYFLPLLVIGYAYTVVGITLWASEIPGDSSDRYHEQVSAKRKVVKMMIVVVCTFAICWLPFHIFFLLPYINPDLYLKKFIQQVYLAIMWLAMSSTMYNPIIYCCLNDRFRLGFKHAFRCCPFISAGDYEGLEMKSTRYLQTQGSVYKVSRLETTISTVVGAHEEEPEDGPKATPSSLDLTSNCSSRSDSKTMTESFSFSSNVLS

SMILES | Ki [1] [nM] | Ki [2] [nM]
CCn1ncc2c(-c3ccccc3C)c(N(C)C(=O)C(C)(C)c3cc(C(F)(F)F)cc(C(F)(F)F)c3)cnc21 [Example 1, 2-(3,5-Bis-trifluoromethyl-phenyl)-N-(1-ethyl-4-o-tolyl-1H-pyrazolo[3,4-b]pyridin-5-yl)-N-methyl-isobutyramide] | 1.2 | 32.7
CCn1ncc2c(-c3ccc(F)cc3C)c(N(C)C(=O)C(C)(C)c3cc(C(F)(F)F)cc(C(F)(F)F)c3)cnc21 [Example 2, 2-(3,5-Bis-trifluoromethyl-phenyl)-N-[1-ethyl-4-(4-fluoro-2-methyl-phenyl)-1H-pyrazolo[3,4-b]pyridin-5-yl]-N-methyl-isobutyramide] | 1.1 | 25.7
CCn1ncc2c(-c3ccccc3Cl)c(N(C)C(=O)C(C)(C)c3cc(C(F)(F)F)cc(C(F)(F)F)c3)cnc21 [Example 3, 2-(3,5-Bis-trifluoromethyl-phenyl)-N-[4-(2-chloro-phenyl)-1-ethyl-1H-pyrazolo[3,4-b]pyridin-5-yl]-N-methyl-isobutyramide] | 0.6 | 22.9
CCn1ncc2c(-c3ccc(Cl)c(Cl)c3)c(N(C)C(=O)C(C)(C)c3cc(C(F)(F)F)cc(C(F)(F)F)c3)cnc21 [Example 4, 2-(3,5-Bis-trifluoromethyl-phenyl)-N-[4-(3,4-dichloro-phenyl)-1-ethyl-1H-pyrazolo[3,4-b]pyridin-5-yl]-N-methyl-isobutyramide] | 0.4 | 86.8
CCn1ncc2c(-c3ccc(F)cc3C)c(NC(=O)C(C)(C)c3cc(C(F)(F)F)cc(C(F)(F)F)c3)cnc21 [Example 5, 2-(3,5-Bis-trifluoromethyl-phenyl)-N-[1-ethyl-4-(4-fluoro-2-methyl-phenyl)-1H-pyrazolo[3,4-b]pyridin-5-yl]-isobutyramide] | 6 | 200
Cc1cc(F)ccc1-c1c(N(C)C(=O)C(C)(C)c2cc(C(F)(F)F)cc(C(F)(F)F)c2)cnc2c1cnn2CC(F)F [Example 6, 2-(3,5-Bis-trifluoromethyl-phenyl)-N-[1-(2,2-difluoro-ethyl)-4-(4-fluoro-2-methyl-phenyl)-1H-pyrazolo[3,4-b]pyridin-5-yl]-N-methyl-isobutyramide] | 0.9 | 6.8
Cc1cc(F)ccc1-c1c(N(C)C(=O)C(C)(C)c2cc(C(F)(F)F)cc(C(F)(F)F)c2)cnc2c1cnn2C [Example 7, 2-(3,5-Bis-trifluoromethyl-phenyl)-N-[4-(4-fluoro-2-methyl-phenyl)-1-methyl-1H-pyrazolo[3,4-b]pyridin-5-yl]-N-methyl-isobutyramide] | 0.8 | 18.9
CCn1ncc2c(-c3ccc(F)cc3F)c(N(C)C(=O)C(C)(C)c3cc(C(F)(F)F)cc(C(F)(F)F)c3)cnc21 [Example 8, 2-(3,5-Bis-trifluoromethyl-phenyl)-N-[4-(2,4-difluoro-phenyl)-1-ethyl-1H-pyrazolo[3,4-b]pyridin-5-yl]-N-methyl-isobutyramide] | 1.7 | 483
CCn1ncc2c(-c3cccc(F)c3F)c(N(C)C(=O)C(C)(C)c3cc(C(F)(F)F)cc(C(F)(F)F)c3)cnc21 [Example 9, 22-(3,5-Bis-trifluoromethyl-phenyl)-N-[4-(2,3-difluoro-phenyl)-1-ethyl-1H-pyrazolo[3,4-b]pyridin-5-yl]-N-methyl-isobutyramide] | 10.2 | 779
CCn1ncc2c(-c3ccccc3)c(N(C)C(=O)C(C)(C)c3cc(C(F)(F)F)cc(C(F)(F)F)c3)cnc21 [Example 10, 2-(3,5-Bis-trifluoromethyl-phenyl)-N-(1-ethyl-4-phenyl-1H-pyrazolo[3,4-b]pyridin-5-yl)-N-methyl-isobutyramide] | 2.5 | 532
Cc1cc(F)ccc1-c1c(N(C)C(=O)C(C)(C)c2cc(C(F)(F)F)cc(C(F)(F)F)c2)cnc2c1cnn2Cc1ccccc1 [Example 11, N-[1-Benzyl-4-(4-fluoro-2-methyl-phenyl)-1H-pyrazolo[3,4-b]pyridin-5-yl]-2-(3,5-bis-trifluoromethyl-phenyl)-N-methyl-isobutyramide] | 1.3 | 77
CCn1ncc2c(-c3ccc(F)cc3OC)c(N(C)C(=O)C(C)(C)c3cc(C(F)(F)F)cc(C(F)(F)F)c3)cnc21 [Example 12, 2-(3,5-Bis-trifluoromethyl-phenyl)-N-[1-ethyl-4-(4-fluoro-2-methoxy-phenyl)-1H-pyrazolo[3,4-b]pyridin-5-yl]-N-methyl-isobutyramide] | 0.7 | 41.4
CCn1ncc2c(-c3cc(F)ccc3C)c(N(C)C(=O)C(C)(C)c3cc(C(F)(F)F)cc(C(F)(F)F)c3)cnc21 [Example 13, 2-(3,5-Bis-trifluoromethyl-phenyl)-N-[1-ethyl-4-(5-fluoro-2-methyl-phenyl)-1H-pyrazolo[3,4-b]pyridin-5-yl]-N-methyl-isobutyramide] | 7.9 | 160
CCn1ncc2c(-c3cccc(F)c3Cl)c(N(C)C(=O)C(C)(C)c3cc(C(F)(F)F)cc(C(F)(F)F)c3)cnc21 [Example 14, 2-(3,5-Bis-trifluoromethyl-phenyl)-N-[4-(2-chloro-3-fluoro-phenyl)-1-ethyl-1H-pyrazolo[3,4-b]pyridin-5-yl]-N-methyl-isobutyramide] | 1.6 | 38.7
CCn1ncc2c(-c3ccccc3OC)c(N(C)C(=O)C(C)(C)c3cc(C(F)(F)F)cc(C(F)(F)F)c3)cnc21 [Example 15, 2-(3,5-Bis-trifluoromethyl-phenyl)-N-[1-ethyl-4-(2-methoxy-phenyl)-1H-pyrazolo[3,4-b]pyridin-5-yl]-N-methyl-isobutyramide] | 0.7 | 208
CCn1ncc2c(-c3ccc(OC)cc3C)c(N(C)C(=O)C(C)(C)c3cc(C(F)(F)F)cc(C(F)(F)F)c3)cnc21 [Example 16, 2-(3,5-Bis-trifluoromethyl-phenyl)-N-[1-ethyl-4-(4-methoxy-2-methyl-phenyl)-1H-pyrazolo[3,4-b]pyridin-5-yl]-N-methyl-isobutyramide] | 8.6 | 373
CCn1ncc2c(-c3cccc(Cl)c3)c(N(C)C(=O)C(C)(C)c3cc(C(F)(F)F)cc(C(F)(F)F)c3)cnc21 [Example 17, 2-(3,5-Bis-trifluoromethyl-phenyl)-N-[4-(3-chloro-phenyl)-1-ethyl-1H-pyrazolo[3,4-b]pyridin-5-yl]-N-methyl-isobutyramide] | 4.2 | 355
CCn1ncc2c(-c3cccc(Cl)c3Cl)c(N(C)C(=O)C(C)(C)c3cc(C(F)(F)F)cc(C(F)(F)F)c3)cnc21 [Example 18, 2-(3,5-Bis-trifluoromethyl-phenyl)-N-[4-(2,3-dichloro-phenyl)-1-ethyl-1H-pyrazolo[3,4-b]pyridin-5-yl]-N-methyl-isobutyramide] |  | 45.3
CCn1ncc2c(-c3ccc(F)cc3Cl)c(N(C)C(=O)C(C)(C)c3cc(C(F)(F)F)cc(C(F)(F)F)c3)cnc21 [Example 19, 2-(3,5-Bis-trifluoromethyl-phenyl)-N-[4-(2-chloro-4-fluoro-phenyl)-1-ethyl-1H-pyrazolo[3,4-b]pyridin-5-yl]-N-methyl-isobutyramide] | 0.3 | 13.8
CCn1ncc2c(-c3ccccc3CO)c(N(C)C(=O)C(C)(C)c3cc(C(F)(F)F)cc(C(F)(F)F)c3)cnc21 [Example 20, 2-(3,5-Bis-trifluoromethyl-phenyl)-N-[1-ethyl-4-(2-hydroxymethyl-phenyl)-1H-pyrazolo[3,4-b]pyridin-5-yl]-N-methyl-isobutyramide] | 1.6 | 209
CCn1ncc2c(-c3cccnc3C)c(N(C)C(=O)C(C)(C)c3cc(C(F)(F)F)cc(C(F)(F)F)c3)cnc21 [Example 25, 2-(3,5-Bis-trifluoromethyl-phenyl)-N-[1-ethyl-4-(2-methyl-pyridin-3-yl)-1H-pyrazolo[3,4-b]pyridin-5-yl]-N-methyl-isobutyramide] | 522 | 
Cc1cc(F)ccc1-c1c(N(C)C(=O)C(C)(C)c2cc(C(F)(F)F)cc(C(F)(F)F)c2)cnc2c1cnn2CC(=O)N1CCCC1 [Example 34, 2-(3,5-Bis-trifluoromethyl-phenyl)-N-[4-(4-fluoro-2-methyl-phenyl)-1-(2-oxo-2-pyrrolidin-1-yl-ethyl)-1H-pyrazolo[3,4-b]pyridin-5-yl]-N-methyl-isobutyramide] |  | 39.5
Cc1cc(F)ccc1-c1c(N(C)C(=O)C(C)(C)c2cc(C(F)(F)F)cc(C(F)(F)F)c2)cnc2c1cnn2CC(=O)N(C)C [Example 35, 2-(3,5-Bis-trifluoromethyl-phenyl)-N-[1-dimethylcarbamoylmethyl-4-(4-fluoro-2-methyl-phenyl)-1H-pyrazolo[3,4-b]pyridin-5-yl]-N-methyl-isobutyramide] |  | 93.9
